According to publication PMC11618975, “Design and Development of Novel Hybrids Based on Pyrrolo[2,1‐f][1,2,4]Triazine and 1‐(Methylpiperidin‐4‐yl) Aniline–Based Analogs: Exploring the Utility as Anticancer Agents via MERTK Inhibition” (Chemical Biology & Drug Design, 2024):
“Also recorded” adds a separate entry of the source. Read-outs that look alike come from different tables or passages of the source.

Assays:
A549 lung cancer cells = test: Cell viability (resazurin) assay, A549; type: cell-based; details: read-out: IC50 values (mean ± SD) A549
Method: (§1) This includes lung cancer cells (A549) and breast cancer cells (MCF‐7 and MDA‐MB‐231). […] The remaining compounds were also found to portray the inhibition at a low micromolar range and better than the cisplatin, employed as a positive control during the experiment.
(§2) The cell viability assay of new compounds was performed against A549, MCF‐7, and MDA‐MB‐231 carcinoma cell lines. The cells (2500 cells/well) were seeded in a 96‐well plate using DMEM media (Gibco by Life Technologies) consisting of 10% FBS and subjected to incubation at 37°C for 24 h in 5% CO2 in a Nuaire incubator (humidified) for adherence to surface and growth. After 24 h, cells were subjected to treatment against target compounds (1K1‐1K5) at different concentrations (final concentrations ranging from 0.01–30 μM) and left for incubation for 72 h at the same conditions as mentioned above. The same procedure was repeated after 72 h after replacing the remaining test compound with fresh media and incubating treated cells for a further 48 h. After incubation, the remaining compounds with media were removed followed by washing with fresh media and the addition of 100 μL of resazurin (1 mM, Sigma). The 96‐well plate was incubated for 4 h at room temperature. A multimode microplate reader was used to record fluorescence at 535 nm (excitation) and 590 nm (emission) wavelengths. Background fluorescence was subtracted for calculating final results and avoiding any interference and normalized against vehicle control (DMSO treated cells) to calculate final cell viability. Cell viability (percentage) was used to calculate the IC50 values of the target compounds using fitting the curve to the “four‐parameter variable slope logistic model” using Prism Graph Pad (Kathuria et al. [2023]; Rani et al. [2023]).

[1] = test system: MCF-7 breast cancer cells; test: Cell viability (resazurin) assay, MCF-7; type: cell-based; details: read-out: IC50 values (mean ± SD) MCF-7
Method: as §1, §2

[2] = test system: MDA-MB-231 breast cancer cells; test: Cell viability (resazurin) assay, MDA-MB-231; type: cell-based; details: MDA-MB-231 cells, read-out: IC50 values (mean ± SD) MDA-MB-231
Method: as §1, §2

[3] = Human liver microsomal stability (DMPK); type: in vitro ADME; details: for % parent remaining: human liver microsomes 0.5 mg/mL, 1 μM compound, NADPH, 30 min; for half-life at 1 μM: human, liver microsomes, pH 7.4, human liver microsomes, read-out: T 1/2 (HLM); for microsomal CLint at 1 μM: pH 7.4, human liver microsomes, read-out: CLint (HLM)
Method: (§3) To understand the intrinsic pharmacokinetics of synthetics and their stability in relation to human liver microsomal (HLM) and mouse liver microsomal (MLM), we performed the DMPK studies.
(§4) The DMPK evaluation involves multiple reagents and instruments. The chemical and reagents include synthesized target molecules (at a concentration of 1–3 mg), DMSO (HPLC grade), PBS (pH = 7.4), NADPH, and liver microsomes (human and mouse) procured from Thermo. The instruments include Nexera X2 UPLC with an AB Sciex QTrap 4500 MS/MS detector (Shimadzu), single and multichannel micropipette (Eppendorf USA and Thermo), a 96‐well plate (1 mL capacity with deep wells) vortex mixer (Tarsons), centrifuge tubes (Tarsons) water bath (MRC), and a centrifuge (Thermo). The fresh stock solutions (10 mM) were prepared and incubations were carried out in duplication. Each well‐comprised potassium phosphate buffer (100 mM, pH 7.4) with 0.5 mg/mL microsome, NADPH (1 mM), and target molecule (1 μM). After 30 min incubation (37°C), the aliquots were taken at 0 and 30 min and quenched with chilled acetonitrile comprising Terfenadine as internal standard. The samples were centrifuged at 4000 rpm at 4°C, and the supernatant was subjected to LC–MS/MS for analysis. The experiment was used to determine the half‐life of the compound with the help of peak area ratio relative to the internal standard.

[4] = Mouse liver microsomal stability (DMPK); type: in vitro ADME; details: for % parent remaining: mouse liver microsomes 0.5 mg/mL, 1 μM compound, NADPH, 30 min; for half-life at 1 μM: mouse, liver microsomes, pH 7.4, mouse liver microsomes, read-out: T 1/2 (MLM); for microsomal CLint at 1 μM: pH 7.4, mouse liver microsomes, read-out: CLint (MLM)
Method: as §3, §4

MERTK (cMER) = target: T1, MERTK (cMER) (Homo sapiens, UniProt Q12866); test: MERTK kinase inhibition assay (Z-Lyte kinase assay kit); type: biochemical
T1 sequence (Q12866 21-999): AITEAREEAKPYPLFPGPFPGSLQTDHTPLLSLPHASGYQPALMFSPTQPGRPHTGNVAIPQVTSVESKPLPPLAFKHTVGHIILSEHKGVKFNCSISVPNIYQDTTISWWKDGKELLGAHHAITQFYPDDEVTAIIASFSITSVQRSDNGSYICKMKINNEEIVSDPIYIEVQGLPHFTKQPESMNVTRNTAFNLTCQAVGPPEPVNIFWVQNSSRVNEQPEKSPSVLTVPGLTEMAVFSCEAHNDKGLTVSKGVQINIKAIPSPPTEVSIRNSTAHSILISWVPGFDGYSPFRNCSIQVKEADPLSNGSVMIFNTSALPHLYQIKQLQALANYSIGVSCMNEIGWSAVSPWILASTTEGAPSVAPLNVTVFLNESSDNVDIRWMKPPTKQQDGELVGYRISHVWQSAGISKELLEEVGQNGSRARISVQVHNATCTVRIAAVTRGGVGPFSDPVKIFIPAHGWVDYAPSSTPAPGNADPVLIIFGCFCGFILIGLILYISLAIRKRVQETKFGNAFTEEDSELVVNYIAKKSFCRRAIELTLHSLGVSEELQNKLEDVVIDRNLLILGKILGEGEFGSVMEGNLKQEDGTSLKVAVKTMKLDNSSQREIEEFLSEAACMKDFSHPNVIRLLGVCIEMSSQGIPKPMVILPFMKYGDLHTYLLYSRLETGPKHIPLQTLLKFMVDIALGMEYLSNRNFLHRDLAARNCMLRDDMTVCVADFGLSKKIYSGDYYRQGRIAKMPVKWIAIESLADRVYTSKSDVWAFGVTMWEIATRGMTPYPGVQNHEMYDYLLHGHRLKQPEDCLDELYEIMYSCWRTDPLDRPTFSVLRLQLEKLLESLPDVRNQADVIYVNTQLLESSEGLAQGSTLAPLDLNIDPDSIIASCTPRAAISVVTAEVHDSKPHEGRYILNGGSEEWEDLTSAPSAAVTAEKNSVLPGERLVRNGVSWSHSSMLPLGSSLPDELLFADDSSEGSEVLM
Method: All the synthesized molecules were assessed for their kinase inhibitory activity against MERTK using a kinase inhibition assay.
[…] (z‐Lyte kinase assay kit‐tyr4 peptide) was utilized to determine MERTK inhibitory activity as per the protocol supplied by the supplier along with the kit. Briefly, the mixture of MERTK (cMER) / Tyr 02 (2X) was made using HEPES buffer (50 mM, pH 7.5) comprising polyoxyethylene lauryl ether solution (0.01%), MgCl2 (10 mM), MnCl2 (4 mM), EGTA (1 mM), and DTT (2 mM). The kinase solution of 10 μL was used as the final reaction solution. In the next step, the target molecules in varying concentrations were incubated with kinase solution for 1 h. Development reagent A (5 μL) of 1:128 dilution was added after the incubation period. The fluorescence was measured at Ex/Em 400, 445, and 520 nm using a microplate reader for the determination of final percentage inhibition. The percent phosphorylation was determined via the use of the emission ratio calculated from the division of Coumarin Emission (at 445 nm) to fluorescein emission (at 520 nm). %phosphorylation=1−Emission ratio×F100%−C100%/C0%−C100%+Emission ratioF100%−F0%

[5] = Homo sapiens, MCF7, MCF-7 cells

| IC50 (A549 lung cancer cells; Homo sapiens) | IC50 [1, 5] | IC50 ([2]; Homo sapiens) | % parent remaining [3] | half-life at 1 μM [3] | microsomal CLint at 1 μM [3] | % parent remaining [4] | half-life at 1 μM [4] | microsomal CLint at 1 μM [4] | inhibition of MERTK (MERTK (cMER); 1 and 10 μM test concentrations) | SMILES | IC50 (A549 lung cancer cells) | IC50 ([1]; MCF-7 cells) | IC50 [2] | MERTK inhibition compared with positive control staurosporine (MERTK (cMER); listed as IK5) |
| --- | --- | --- | --- | --- | --- | --- | --- | --- | --- | --- | --- | --- | --- | --- |
|  |  |  |  |  |  |  |  |  |  | N.N.[Cl][Pt][Cl] [Cisplatin, cisplatin, reference compound] | 5.86 ± 0.009 µM | 4.93 ± 0.13 µM | 5.42 ± 0.09 µM |  |
| 1.44 ± 0.017 µM | 1.42 ± 0.021 µM | 4.06 ± 0.019 µM | 65.7% | 0.615 h | 28 µL/min/mg | 57% | 0.823 h | 38 µL/min/mg |  | CN1CCC(c2ccc(Nc3ncnn4cc(-c5ccc(C(C)(C)C)cc5)cc34)cc2F)CC1 [1K3, 6‐(4‐(Tert‐butyl)phenyl)‐N‐(3‐Fluoro‐4‐(1‐Methylpiperidin‐4‐yl)phenyl)pyrrolo[2,1‐f][1,2,4]Triazin‐4‐Amine] |  |  |  |  |
| 0.89 ± 0.011 µM | 1.14 ± 0.011 µM | 1.47 ± 0.014 µM | 75.8% | 1.25 h | 18 µL/min/mg | 91.7% | 3.97 h | 6 µL/min/mg |  | COc1cc(-c2cc3c(Nc4ccc(C5CCN(C)CC5)c(F)c4)ncnn3c2)cc(Cl)c1F [1K4, 6‐(3‐Chloro‐4‐Fluoro‐5‐Methoxyphenyl)‐N‐(3‐Fluoro‐4‐(1‐Methylpiperidin‐4‐yl)phenyl)pyrrolo[2,1‐f][1,2,4]Triazin‐4‐Amine] |  |  |  |  |
| 1.18 ± 0.019 µM | 0.44 ± 0.015 µM | 1.7 ± 0.011 µM | 82.8% | 1.83 h | 13 µL/min/mg | 83.4% | 1.9 h | 12 µL/min/mg |  | CCOc1c(Cl)cc(-c2cc3c(Nc4ccc(C5CCN(C)CC5)c(F)c4)ncnn3c2)cc1OC [1K2, 6‐(3‐Chloro‐4‐Ethoxy‐5‐Methoxyphenyl)‐N‐(3‐Fluoro‐4‐(1‐Methylpiperidin‐4‐yl)phenyl)pyrrolo[2,1‐f][1,2,4]Triazin‐4‐Amine] |  |  |  |  |
| 8.63 ± 0.021 µM | 1.28 ± 0.014 µM | 4.02 ± 0.015 µM | 71.7% | 1.04 h | 22 µL/min/mg | 70% | 0.972 h | 24 µL/min/mg |  | CN1CCC(c2ccc(Nc3ncnn4cc(-c5cc(F)c(F)c(F)c5)cc34)cc2F)CC1 [1K1, N‐(3‐Fluoro‐4‐(1‐Methylpiperidin‐4‐yl)phenyl)‐6‐(3,4,5‐trifluorophenyl)pyrrolo[2,1‐f][1,2,4]Triazin‐4‐Amine] |  |  |  |  |
| 0.36 ± 0.019 µM | 0.42 ± 0.017 µM | 0.8 ± 0.011 µM | 94.9% | 6.61 h | 3 µL/min/mg | 79.7% | 1.54 h | 15 µL/min/mg | approx. 42% | CCOc1ccc(-c2cc3c(Nc4ccc(C5CCN(C)CC5)c(F)c4)ncnn3c2)cc1OC [1K5, 6‐(4‐Ethoxy‐3‐Methoxyphenyl)‐N‐(3‐Fluoro‐4‐(1‐Methylpiperidin‐4‐yl)phenyl)pyrrolo[2,1‐f][1,2,4]Triazin‐4‐Amine] |  |  |  | comparable inhibition to positive control staurosporine; also recorded: comparable inhibitory potential to the positive control drug staurosporine |
